From US7390910B2, “Compounds for treating tumors” (priority 2003, dated 2008)
pIC50: −log10 of the molar value. Marks after values point to notes of the source that are not given here.

Tests used:
[1] = test system: bovine microtubule-associated protein (MAP)-rich tubulin; type: biochemical
Protocol: Tubulin Polymerization Assays. For in vitro tubulin polymerization assays, bovine microtubule-associated protein (MAP)-rich tubulin, PEM buffer [80 mM Na-PIPES (pH 6.9), 1 mM MgCl2, and 1 mM EGTA], and GTP are purchased from Cytoskeleton (Denver, Colo.). MAP-rich tubulin (final concentration 1.5 mg/ml) is dissolved in cold PEM buffer containing 1 mM GTP (GPEM) and centrifuged at 12,000×g for 10 min at 4° C. The tubulin solution (100 μl/well) is added rapidly to wells of a low-volume, 96-well plate already containing duplicate aliquots (10 μl) of test compounds in GPEM. […] Control wells contained the same final concentration of DMSO (0.3%). After initiation of the reaction, absorbance at 340 nm is measured every minute for 60 min at 24° C. using a SpectraMax Plus plate reader (Molecular Devices, Sunnyvale, Calif.).

KBV1 = test: cells; type: cell-based; conditions: for pIC50: 3 days, SRB; for inhibition at 3 µM: KB-V1, 3000 nM
Protocol: (§1) Cell Survival Assay: Standard Pharmacological Test Procedure. […] Compounds are incubated with cells for 3 days.

KB85 = test: cells; type: cell-based; conditions: 3 days, SRB
Protocol: as §1

KB cells = test: cells; type: cell-based; conditions: 3 days, SRB
Protocol: as §1

| SMILES | Tubulin Polym. % inhibition at 0.3 uM [1] | pIC50 (KBV1; Homo sapiens, KB-V1, 72 h) | pIC50 (KB85; 72 h) | pIC50 (KB cells; Homo sapiens, KB, 72 h) | pIC50 (KBV1) | pIC50 (KB85) | pIC50 (KB cells) | Tubulin Polym. % inhibition at 0.5 uM [1] | inhibition at 3 µM (KBV1; Homo sapiens) |
| --- | --- | --- | --- | --- | --- | --- | --- | --- | --- |
| CN[C@H](C(=O)N[C@H](C(=O)N(C)[C@H](/C=C(\C)C(=O)N1CCC[C@H]1C(=O)OC)C(C)C)C(C)(C)C)C(C)(C)c1cccc(C)c1 [Example 21, N,β,β,3-Tetramethyl-L-phenylalanyl-N^1-{(1S,2E)-4-[(2S)-2-(methoxycarbonyl)pyrrolidin-1-yl]-1-isopropyl-3-methyl-4-oxobut-2-enyl}-N^1,3-dimethyl-L-valinamide] | 89% | 6.56 | 8.21 | 8.80 | – | – | – | – | – |
| CN[C@H](C(=O)N[C@H](C(=O)N(C)[C@H](/C=C(\C)C(=O)N1CCC[C@H]1[C@H](OC)[C@@H](C)C(=O)NCCc1ccccc1)C(C)C)C(C)(C)C)C(C)(C)c1ccccc1 [Example 31, N-methyl-3-phenyl-L-valyl-N^1— [(1S,2E)-1-isopropyl-4-((2S)-2-{(1R,2R)-1-methoxy-2-methyl-3-oxo-[(2-phenethyl)amino]propyl}pyrrolidin-1-yl)-3-methyl-4-oxobut-2-enyl]-N^1,3-dimethyl-L-valinamide] | 69% | – | – | – | 6.72 | 8.29 | 9.05 | – | – |
| CN[C@H](C(=O)N[C@H](C(=O)N(C)[C@H](/C=C(\C)[C@H](O)c1ccccc1)C(C)C)C(C)(C)C)C(C)(C)c1ccccc1 [Example 76, N,β,β-trimethyl-L-phenylalanyl-N-1-[(1S,2E,4S)-4-hydroxy-1-isopropyl-3-methyl-4-phenylbut-2-enyl}-N-1,3-dimethyl-L-valinamide] | – | – | – | – | 6.72 | 7.66 | 7.80 | 63*** % | – |
| CN[C@H](C(=O)N[C@H](C(=O)N(C)[C@H](/C=C(\C)C(=O)N1CCN(Cc2ccccc2)CC1)C(C)C)C(C)(C)C)C(C)(C)c1ccc(C)c(C)c1 [Example 12, N,β,β,3,4-Pentamethyl-L-phenylalanyl-N^1-[(1S,2E)-4-(4-benzylpiperazin-1-yl)-1-isopropyl-3-methyl-4-oxobut-2-enyl]-N^1,3-dimethyl-L-valinamide] | 51% | 5.87 | 7.19 | 7.32 | – | – | – | – | – |
| CN[C@H](C(=O)N[C@H](C(=O)N(C)[C@H](/C=C(\C)C(=O)N1CCC[C@H]1C(=O)OC)C(C)C)C(C)(C)C)C(C)(C)c1cccc(Cl)c1 [Example 23, 3-Chloro-N,β,β-trimethyl-L-phenylalanyl-N^1-{(1S,2E)-4-[(2S)-2-(methoxycarbonyl)pyrrolidin-1-yl]-1-isopropyl-3-methyl-4-oxobut-2-enyl}-N^1,3-dimethyl-L-valinamide] | 88% | 6.44 | 8.21 | 8.60 | – | – | – | – | – |
| CN[C@H](C(=O)N[C@H](C(=O)N(C)[C@H](/C=C(\C)C(=O)N1CC=C[C@H]1C(=O)OC)C(C)C)C(C)(C)C)C(C)(C)c1ccccc1 [Example 47, N,β,β-trimethyl-L-phenylalanyl-N^1-{(1S,2E)-1-isopropyl-4-[(2S)-2-(methoxycarbonyl)-2,5-dihydro-1H-pyrrol-1-yl]-3-methyl-4-oxobut-2-enyl}-N^1,3-dimethyl-L-valinamide] | 88(2) % | 6.57 | 7.77 | 8.46 | – | – | – | – | – |
| CN[C@H](C(=O)N[C@H](C(=O)N(C)[C@H](/C=C(\C)C(=O)N1CCC[C@H]1C(=O)OC)C(C)C)C(C)(C)C)C(C)(C)C1CCCCC1 [Example 45, 3-cyclohexyl-N-methyl-L-valyl-N^1-{(1S,2E)-4-[(2S)-2-(methoxycarbonyl)pyrrolidin-1-yl]-1-isopropyl-3-methyl-4-oxobut-2-enyl}-N^1,3-dimethyl-L-valinamide] | 62(2) % | 6.31 | 7.80 | 8.43 | – | – | – | – | – |
| CN[C@H](C(=O)N[C@H](C(=O)N(C)[C@H](/C=C(\C)C(=O)N1CCN(CCCN(C)C)CC1)C(C)C)C(C)(C)C)C(C)(C)c1ccccc1 [Example 38, N,β,β-trimethyl-L-phenylalanyl-N^1-((1S,2E)-4-{4-[3-(dimethylamino)propyl]piperazin-1-yl}-1-isopropyl-3-methyl-4-oxobut-2-enyl)-N^1,3-dimethyl-L-valinamide] | 75% | – | 6.28 | 7.70 | – | – | – | – | 0% |
| CNC(C(=O)NC(C(=O)N(C)C(C=C(C)C(=O)CO)C(C)C)C(C)(C)C)C(C)(C)c1ccccc1 (centres unmarked) [Example 90, N-{1-[(5-Hydroxy-1-isopropyl-3-methyl-4-oxo-pent-2-enyl)-methyl-carbamoyl]-2,2-dimethyl-propyl}-3-methyl-2-methylamino-3-phenyl-butyramide] | – | 5.95 | 7.17 | 7.37 | – | – | – | 76*** % | – |
| CN[C@H](C(=O)N[C@H](C(=O)N(C)[C@H](/C=C(\C)[C@@H](O)c1ccccc1)C(C)C)C(C)(C)C)C(C)(C)c1ccccc1 [Example 75, N,β,β-trimethyl-L-phenylalanyl-N-1-[(1S,2E,4R)-4-hydroxy-1-isopropyl-3-methyl-4-phenylbut-2-enyl}-N-1,3-dimethyl-L-valinamide] | – | – | – | – | 6.20 | 6.73 | 6.91 | 83*** % | – |
| CN[C@H](C(=O)N[C@H](C(=O)N(C)[C@H](/C=C(\C)C(=O)N1C[C@H](O)C[C@H]1C(=O)O)C(C)C)C(C)(C)C)C(C)(C)c1ccccc1 [Example 42, N,β,β-trimethyl-L-phenylalanyl-N^1-{(1S,2E)-4-[(2S,4R)-2-carboxy-4-hydroxypyrrolidin-1-yl]-1-isopropyl-3-methyl-4-oxobut-2-enyl}-N^1,3-dimethyl-L-valinamide] | 96% | – | 5.73 | 6.74 | – | – | – | – | 0% |
| CN[C@H](C(=O)N[C@H](C(=O)N(C)[C@H](/C=C(\C)C(=O)N1CCC[C@H]1[C@H](OC)[C@@H](C)C(=O)N1C(=O)O[C@@H](c2ccccc2)[C@H]1C)C(C)C)C(C)(C)C)C(C)(C)C1CCCCC1 [Example 51, 3-cyclohexyl-N-methyl-L-valyl-N^1-[(1S,2E)-1-isopropyl-4-((2S)-2-{(1R,2R)-1-meyhoxy-2-methyl-3-[(4R,5S)-4-methyl-2-oxo-5-phenyl-1,3-oxazolidin-3-yl]-3-oxopropyl}pyrrolidin-1-yl)-3-methyl-4-oxobut-2-enyl]-N^1,3-dimethyl-L-valinamide] | 82% | – | – | – | 5.75 | 7.21 | 7.66 | – | – |
| CN[C@H](C(=O)N[C@H](C(=O)N(C)[C@H](/C=C(\C)C(=O)c1nccs1)C(C)C)C(C)(C)C)C(C)(C)c1ccccc1 [Example 73, N,β,β-trimethyl-L-phenylalanyl-N^1-[(1S,2E)-1-isopropyl-3-methyl-4-oxo-4-(1,3-thiazol-2-yl)but-2-enyl]-N^1,3-dimethyl-L-valinamide] | 33% | 5.75 | 6.25 | 6.24 | – | – | – | – | – |
| CN[C@H](C(=O)N[C@H](C(=O)N(C)[C@H](/C=C(\C)C(=O)N1CCC[C@H]1C(=O)O)C(C)C)C(C)(C)C)C(C)(C)c1ccccc1 [Example 36, N,β,β-trimethyl-L-phenylalanyl-N^1-{(1S,2E)-4-[(2S)-2-carboxypyrrolidin-1-yl]-1-isopropyl-3-methyl-4-oxobut-2-enyl}-N^1,3-dimethyl-L-valinamide] | 97% | – | 6.69 | 7.21 | – | – | – | – | 0% |
| CN[C@H](C(=O)N[C@H](C(=O)N(C)[C@H](/C=C(\C)C(=O)N1CCC[C@H]1C(=O)OC)C(C)C)C(C)(C)C)C(C)(C)c1ccc(C)c(C)c1 [Example 17, N,β,β,3,4-Pentamethyl-L-phenylalanyl-N^1-{(1S,2E)-4-[(2S)-2-(methoxycarbonyl)pyrrolidin-1-yl]-1-isopropyl-3-methyl-4-oxobut-2-enyl}-N^1,3-dimethyl-L-valinamide] | 71% | 6.44 | 7.82 | 8.72 | – | – | – | – | – |
| CN[C@@H](C(=O)N[C@H](C(=O)N(C)[C@H](/C=C(\C)C(=O)N1CCOCC1)C(C)C)C(C)(C)C)C(C)(C)c1ccc(C)c(C)c1 [Example 4, N,β,β,3,4-Pentamethyl-D-phenylalanyl-N^1[(1S,2E)-1-isopropyl-3-methyl-4-morpholin-4-yl-4-oxobut-2-enyl]-N^1,3-dimethyl-L-valinamide] | 61% | – | 6.27 | 6.43 | – | – | – | – | 42% |
| CN[C@H](C(=O)N[C@H](C(=O)N(C)[C@H](/C=C(\C)C(=O)O)C(C)C)C(C)(C)C)C1(C)CCCc2ccccc21 (stereo partly drawn) [Example 59, (2E,4S)-2,5-dimethyl-4-(methyl{3-methyl-N-[(2S)-2-(methylamino)-2-(1-methyl-1,2,3,4-tetrahydro-1-naphthalenyl)ethanoyl]-L-valyl}amino)-2-hexenoic acid] | 93% | 7.12 | 8.18 | 8.26 | – | – | – | – | – |
